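Interpolation was linear, between the two tested concentrations surrounding the appropriate level; five concentrations were tested over 48 hours in 96-well plates. Here, GI50 denotes the concentration required for 50% inhibition of growth. TGI: concentration producing complete growth inhibition.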
What was measured:
Assay in all cases: inhibition of tumour cell growth, NCI panel, 48 h
NCI/ADR-RES ovarian = tested on: NCI/ADR-RES ovarian
HCT-116 colon = tested on: HCT-116 colon
TK-10 renal = tested on: TK-10 renal
UACC-257 melanoma = tested on: UACC-257 melanoma
SK-MEL-5 melanoma = tested on: SK-MEL-5 melanoma
SF-268 CNS = tested on: SF-268 CNS
RPMI-8226 leukemia = tested on: RPMI-8226 leukemia
M14 melanoma = tested on: M14 melanoma
HS 578T breast = tested on: HS 578T breast
SF-295 CNS = tested on: SF-295 CNS
DU-145 prostate = tested on: DU-145 prostate
SN12C renal = tested on: SN12C renal
A549 NSCLC = tested on: A549 NSCLC
NCI-H226 lung = tested on: NCI-H226 lung
NCI-H522 lung = tested on: NCI-H522 lung
IGROV1 ovarian = tested on: IGROV1 ovarian
786-0 renal = tested on: 786-0 renal
HCT-15 colon = tested on: HCT-15 colon
MDA-MB-468 breast = tested on: MDA-MB-468 breast
RXF 393 renal = tested on: RXF 393 renal
OVCAR-3 ovarian = tested on: OVCAR-3 ovarian
MCF7 breast = tested on: MCF7 breast
OVCAR-5 ovarian = tested on: OVCAR-5 ovarian
BT-549 breast = tested on: BT-549 breast
HT29 colon = tested on: HT29 colon
HOP-92 NSCLC = tested on: HOP-92 NSCLC
UACC-62 melanoma = tested on: UACC-62 melanoma
KM12 colon = tested on: KM12 colon
HL-60(TB) leukemia = tested on: HL-60(TB) leukemia
K-562 leukemia = tested on: K-562 leukemia
NCI-H460 lung = tested on: NCI-H460 lung
T-47D breast = tested on: T-47D breast
MDA-MB-435 = tested on: MDA-MB-435
MALME-3M melanoma = tested on: MALME-3M melanoma
OVCAR-4 ovarian = tested on: OVCAR-4 ovarian
U251 CNS = tested on: U251 CNS
ACHN renal = tested on: ACHN renal
CAKI-1 renal = tested on: CAKI-1 renal
SW-620 colon = tested on: SW-620 colon
SF-539 CNS = tested on: SF-539 CNS
PC-3 prostate = tested on: PC-3 prostate
SK-OV-3 ovarian = tested on: SK-OV-3 ovarian
HCC-2998 colon = tested on: HCC-2998 colon
OVCAR-8 ovarian = tested on: OVCAR-8 ovarian
LOX IMVI melanoma = tested on: LOX IMVI melanoma
MOLT-4 leukemia = tested on: MOLT-4 leukemia
NCI-H23 lung = tested on: NCI-H23 lung
A498 renal = tested on: A498 renal
SR leukemia = tested on: SR leukemia
COLO 205 colon = tested on: COLO 205 colon
SNB-19 CNS = tested on: SNB-19 CNS
HOP-62 NSCLC = tested on: HOP-62 NSCLC
SK-MEL-28 melanoma = tested on: SK-MEL-28 melanoma
SK-MEL-2 melanoma = tested on: SK-MEL-2 melanoma
UO-31 renal = tested on: UO-31 renal
CCRF-CEM leukemia = tested on: CCRF-CEM leukemia
EKVX NSCLC = tested on: EKVX NSCLC
SNB-75 CNS = tested on: SNB-75 CNS
MDA-MB-231 breast = tested on: MDA-MB-231 breast

## CC[C@]12C=CCN3CC[C@@]4(c5ccc(OC)cc5N(C)[C@H]4[C@@](O)(C(=O)OC)[C@@H]1OC(=O)CCCC[P+](c1ccc(OC)cc1)(c1ccc(OC)cc1)c1ccc(OC)cc1)[C@@H]32
NCI/ADR-RES ovarian
  GI50: 20500 nM
  TGI: 55900 nM
HCT-116 colon
  GI50: 1300 nM
  TGI: 7760 nM
TK-10 renal
  GI50: 1670 nM
  TGI: 3800 nM
UACC-257 melanoma
  GI50: 792 nM
  TGI: 2310 nM
SK-MEL-5 melanoma
  GI50: 1600 nM
  TGI: 2950 nM
SF-268 CNS
  GI50: 1470 nM
  TGI: 3490 nM
RPMI-8226 leukemia
  GI50: 299 nM
  TGI: 969 nM
M14 melanoma
  GI50: 1200 nM
  TGI: 2740 nM
HS 578T breast
  GI50: 1510 nM
  TGI: 4990 nM
SF-295 CNS
  GI50: 1970 nM
  TGI: 5440 nM
DU-145 prostate
  GI50: 1600 nM
  TGI: 12300 nM
SN12C renal
  GI50: 1180 nM
  TGI: 3070 nM
A549 NSCLC
  GI50: 1650 nM
  TGI: 11500 nM
NCI-H226 lung
  GI50: 2030 nM
  TGI: 7490 nM
NCI-H522 lung
  GI50: 341 nM
  TGI: 1250 nM
IGROV1 ovarian
  GI50: 548 nM
  TGI: 1860 nM
786-0 renal
  GI50: 2590 nM
  TGI: 8040 nM
HCT-15 colon
  GI50: 8790 nM
  TGI: 22300 nM
MDA-MB-468 breast
  GI50: 264 nM
  TGI: 799 nM
RXF 393 renal
  GI50: 524 nM
  TGI: 2040 nM
OVCAR-3 ovarian
  GI50: 634 nM
  TGI: 2330 nM
MCF7 breast
  GI50: 105 nM
  TGI: 225 nM
OVCAR-5 ovarian
  GI50: 2130 nM
  TGI: 7150 nM
BT-549 breast
  GI50: 1250 nM
  TGI: 2600 nM
HT29 colon
  GI50: 511 nM
  TGI: 2020 nM
HOP-92 NSCLC
  GI50: 520 nM
  TGI: 2640 nM
UACC-62 melanoma
  GI50: 963 nM
  TGI: 2200 nM
KM12 colon
  GI50: 675 nM
  TGI: 1990 nM
HL-60(TB) leukemia
  GI50: 234 nM
  TGI: 674 nM
K-562 leukemia
  GI50: 675 nM
  TGI: 2530 nM
NCI-H460 lung
  GI50: 1150 nM
  TGI: 11200 nM
T-47D breast
  GI50: 383 nM
  TGI: 2830 nM
MDA-MB-435
  GI50: 521 nM
  TGI: 1830 nM
MALME-3M melanoma
  GI50: 1130 nM
  TGI: 2410 nM
OVCAR-4 ovarian
  GI50: 1570 nM
  TGI: 11600 nM
U251 CNS
  GI50: 392 nM
  TGI: 1450 nM
ACHN renal
  GI50: 6280 nM
  TGI: 19700 nM
CAKI-1 renal
  GI50: 15200 nM
  TGI: 29800 nM
SW-620 colon
  GI50: 1060 nM
  TGI: 6430 nM
SF-539 CNS
  GI50: 1520 nM
  TGI: 5440 nM
PC-3 prostate
  GI50: 562 nM
  TGI: 5900 nM
SK-OV-3 ovarian
  GI50: 1400 nM
  TGI: 4520 nM
HCC-2998 colon
  GI50: 617 nM
  TGI: 1850 nM
OVCAR-8 ovarian
  GI50: 1990 nM
  TGI: 9600 nM
LOX IMVI melanoma
  GI50: 1110 nM
  TGI: 2350 nM
MOLT-4 leukemia
  GI50: 1180 nM
  TGI: 3210 nM
NCI-H23 lung
  GI50: 1190 nM
  TGI: 4740 nM
A498 renal
  GI50: 2930 nM
  TGI: 11400 nM
SR leukemia
  GI50: 428 nM
  TGI: 1700 nM
COLO 205 colon
  GI50: 214 nM
  TGI: 450 nM
SNB-19 CNS
  GI50: 484 nM
  TGI: 1950 nM
HOP-62 NSCLC
  GI50: 2420 nM
  TGI: 7120 nM
SK-MEL-28 melanoma
  GI50: 486 nM
  TGI: 1730 nM

## COc1cc(-c2ccc3ncnc(N4CCc5ccc(Cl)cc54)c3c2)cnc1Cl
NCI/ADR-RES ovarian
  GI50: 2230 nM
  TGI: > 100000 nM
HCT-116 colon
  GI50: 2890 nM
  TGI: > 100000 nM
TK-10 renal
  GI50: 2120 nM
  TGI: 7870 nM
UACC-257 melanoma
  GI50: 6320 nM
  TGI: > 100000 nM
SK-MEL-5 melanoma
  GI50: 2150 nM
  TGI: 9360 nM
SF-268 CNS
  GI50: 3290 nM
  TGI: > 100000 nM
RPMI-8226 leukemia
  GI50: 4440 nM
  TGI: > 100000 nM
M14 melanoma
  GI50: 3880 nM
  TGI: > 100000 nM
HS 578T breast
  GI50: 1840 nM
  TGI: 7410 nM
SF-295 CNS
  GI50: 2620 nM
  TGI: 24600 nM
DU-145 prostate
  GI50: 3210 nM
  TGI: > 100000 nM
SN12C renal
  GI50: 3340 nM
  TGI: > 100000 nM
A549 NSCLC
  GI50: 3030 nM
  TGI: > 100000 nM
NCI-H226 lung
  GI50: 2390 nM
  TGI: 21500 nM
NCI-H522 lung
  GI50: 2120 nM
  TGI: 10100 nM
786-0 renal
  GI50: 3220 nM
  TGI: 27700 nM
HCT-15 colon
  GI50: 3170 nM
  TGI: > 100000 nM
MDA-MB-468 breast
  GI50: 1260 nM
  TGI: 4470 nM
RXF 393 renal
  GI50: 1780 nM
  TGI: 6770 nM
OVCAR-3 ovarian
  GI50: 2490 nM
  TGI: > 100000 nM
OVCAR-5 ovarian
  GI50: 3290 nM
  TGI: > 100000 nM
SK-MEL-2 melanoma
  GI50: 5120 nM
  TGI: > 100000 nM
HT29 colon
  GI50: 2880 nM
  TGI: 16400 nM
UO-31 renal
  GI50: 1140 nM
  TGI: > 100000 nM
HOP-92 NSCLC
  GI50: 2110 nM
  TGI: > 100000 nM
UACC-62 melanoma
  GI50: 2250 nM
  TGI: > 100000 nM
KM12 colon
  GI50: 3990 nM
  TGI: > 100000 nM
HL-60(TB) leukemia
  GI50: 2100 nM
  TGI: 9970 nM
K-562 leukemia
  GI50: 3830 nM
  TGI: > 100000 nM
NCI-H460 lung
  GI50: 2950 nM
  TGI: > 100000 nM
CCRF-CEM leukemia
  GI50: 5700 nM
  TGI: > 100000 nM
MDA-MB-435
  GI50: 3320 nM
  TGI: > 100000 nM
MALME-3M melanoma
  GI50: 4600 nM
  TGI: 43300 nM
OVCAR-4 ovarian
  GI50: 3120 nM
  TGI: 95500 nM
U251 CNS
  GI50: 4710 nM
  TGI: > 100000 nM
ACHN renal
  GI50: 2400 nM
  TGI: 14400 nM
EKVX NSCLC
  GI50: 1940 nM
  TGI: > 100000 nM
SNB-75 CNS
  GI50: 1560 nM
  TGI: 7000 nM
CAKI-1 renal
  GI50: 1660 nM
  TGI: 12700 nM
SW-620 colon
  GI50: 3060 nM
  TGI: > 100000 nM
SF-539 CNS
  GI50: 3060 nM
  TGI: 11600 nM
PC-3 prostate
  GI50: 2520 nM
  TGI: > 100000 nM
SK-OV-3 ovarian
  GI50: 3840 nM
  TGI: > 100000 nM
HCC-2998 colon
  GI50: 3460 nM
  TGI: > 100000 nM
OVCAR-8 ovarian
  GI50: 3640 nM
  TGI: > 100000 nM
LOX IMVI melanoma
  GI50: 2970 nM
  TGI: 29500 nM
MOLT-4 leukemia
  GI50: 3360 nM
  TGI: > 100000 nM
NCI-H23 lung
  GI50: 2910 nM
  TGI: > 100000 nM
A498 renal
  GI50: 1540 nM
  TGI: 7160 nM
SR leukemia
  GI50: 4080 nM
  TGI: > 100000 nM
COLO 205 colon
  GI50: 4210 nM
  TGI: > 100000 nM
SNB-19 CNS
  GI50: 3780 nM
  TGI: 83600 nM
HOP-62 NSCLC
  GI50: 6120 nM
  TGI: 81300 nM
SK-MEL-28 melanoma
  GI50: 3840 nM
  TGI: 46700 nM
MDA-MB-231 breast
  GI50: 3940 nM
  TGI: 20800 nM

From PubChem BioAssay (NCI)
